Results as given in ChEMBL document CHEMBL1201862, “PubChem BioAssay data set” (2004).
Activity calls are given as the source filed them.

How the values were obtained:
[1] = activation of miR-122 Renilla sensor silencing – cell-based, Huh7 psiCHECK-miR122, Renilla luciferase, cherry-picked, dose response (AID 651956); assay type: functional;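 further: huh7 hepatoma cells stably carrying a psiCHECK-2 miR-122 sensor plasmid; renilla luciferase signal reporting endogenous miR-122 activity after 48 h compound exposure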
[2] = viability loss in HepG2 hepatoma cells – cell-based, cherry-picks, set 5, cytotoxicity control, dose response (AID 1053118); assay type: functional
[3] = general mammalian cell viability loss – inhibitor set, cherry-pick, set 2, cytotoxicity control for miR-122 modulator project, dose response (AID 720697); assay type: functional, cell-based
[4] = viability loss in HEK293 kidney cells – cell-based, cherry-picks, set 5, cytotoxicity control, dose response (AID 1053117); assay type: functional
[5] = blockers of FN fibrillogenesis by fibroblasts – AH1F cells, Alexa488-FN fluorescence, cherry-picks, dose response (AID 1035475); assay type: functional, cell-based
[6] = P. falciparum Dd2 growth inhibitors, dose response, SYBR Green, cherry-picked samples (AID 1159567); assay type: functional, cell-based
[7] = toxicity to human hepatoma HepG2 cells – cell-based, cherry-picked samples, cytotoxicity control, dose response (AID 1159577); assay type: functional
[8] = target: Paired box protein Pax-8 (Homo sapiens, UniProt Q06710); assay: PAX8 transcriptional activity inhibition in RMG-I – RMG-I cells, luciferase, cherry-pick, dose response (AID 687027); assay type: functional, cell-based;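 further: luciferase reporter driven by Pax8 target thyroperoxidase promoter measured by SteadyGlo luminescence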
[9] = IGROV1 cell killing – plate reader, dry powder samples, PAX8 inhibitor project, dose response (AID 743043); assay type: functional, cell-based; details: IGROV-1
[10] = target: T1, High affinity choline transporter 1 (Homo sapiens, UniProt Q9GZV3); assay: inhibition of SLC5A7-mediated choline transport – cell-based, HEK-293 hCHT, [3H]-choline uptake, dose response (AID 652177); assay type: functional
T1 sequence (Q9GZV3 whole entry): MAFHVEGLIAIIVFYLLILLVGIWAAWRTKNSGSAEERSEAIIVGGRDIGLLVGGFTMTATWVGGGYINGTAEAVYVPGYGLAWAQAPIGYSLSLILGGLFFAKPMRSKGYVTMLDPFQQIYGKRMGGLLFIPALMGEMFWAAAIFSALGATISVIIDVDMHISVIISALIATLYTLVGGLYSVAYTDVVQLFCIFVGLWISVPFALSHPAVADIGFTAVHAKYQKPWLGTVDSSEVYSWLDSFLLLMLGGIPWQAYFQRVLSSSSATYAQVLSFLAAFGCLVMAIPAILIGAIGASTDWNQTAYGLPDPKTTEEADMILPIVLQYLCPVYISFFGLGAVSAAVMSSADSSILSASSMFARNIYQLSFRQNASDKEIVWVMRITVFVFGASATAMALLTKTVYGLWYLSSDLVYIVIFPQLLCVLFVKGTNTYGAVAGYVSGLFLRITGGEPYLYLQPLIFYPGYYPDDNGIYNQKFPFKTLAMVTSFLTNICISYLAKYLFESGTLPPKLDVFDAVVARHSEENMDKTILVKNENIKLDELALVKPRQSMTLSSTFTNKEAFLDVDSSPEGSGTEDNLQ

[11] = A549 cell cytotoxicity, dose response, cytotoxicity control, plate reader, cherry-pick, antagonist series (AID 743412); assay type: functional, cell-based
[12] = blockers of bursicon-stimulated LGR2 cAMP reporter – cell-based, HEK293, CRE-luciferase reporter, cherry pick, set 2, dose response (AID 743343); assay type: functional;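 further: transfected cells were stimulated with diluted bursicon conditioned medium after compound addition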
[13] = blockade of melanocortin 4 receptor signaling – cell-based, plate reader, cherry pick, counter-screen for LGR2 antagonist project, dose response (AID 743444); assay type: functional;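 further: transfected HEK 293 cells stimulated with alpha-MSH peptide; potency of inhibitors of the alpha-MSH evoked signal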
[14] = viability loss in HEK293 cells – cell-based, plate reader, cherry-picked samples, cytotoxicity control, dose response (AID 743446); assay type: functional
[15] = inhibition of bursicon-driven LGR2 cAMP signaling – cell-based, HEK293, CRE-luciferase reporter, cherry pick, dose response (AID 743342); assay type: functional
[16] = target: Protein Wnt-3a (Mus musculus, UniProt P27467); assay: SAR analysis of small molecule antagonists of Gli-SUFU in a Wnt3a luminescent reporter assay.; assay type: functional
[17] = test system: H9c2; assay: cells; assay type: functional, cell-based; details: Rattus norvegicus, H9c2, Myocardium;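 further: confirmatory concentration-response retest of ultra-high-throughput screening hits for modulation of myocardial damage; cell death induced by hydrogen peroxide oxidative stress; compound pretreatment for 60 min then peroxide exposure for 2 h; potency is for protecting the cells against peroxide damage rather than for killing them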
[18] = target: Botulinum neurotoxin type F (Clostridium botulinum, UniProt P30996); assay: High-throughput multiplex microsphere dose response for inhibitors of toxin protease, specifically Botulinum neurotoxin light chain F protease, compounds from Cherry Pick 02.; assay type: functional; details: read-out: EC50_MICROM
[19] = reduction of Shn3 3'UTR-driven luciferase in osteoblasts – cell-based, Clone20 osteoblasts, firefly luciferase, cherry-picked, dose response (AID 624132); assay type: functional;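 further: firefly luciferase luminescence from reporter carrying the Shn3 3'UTR in osteoblasts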
[20] = loss of viability in HepG2 cells – cell-based, CellTiter-Glo, cherry-picked, cytotoxicity control for Shn3 inhibitor project, dose response (AID 624134); assay type: functional
[21] = non-specific 3'UTR reporter inhibition in Clone20-Shn3RL – cell-based, Renilla luciferase, cherry-picked, counter-screen for Shn3 inhibitor project, dose response (AID 624133); assay type: functional
[22] = target: Galanin receptor type 3 (Homo sapiens, UniProt O60755); assay: Fluorescence-based cell-based primary high throughput dose response assay to identify antagonists of the Galanin Receptor 3 (GalR3).; assay type: functional
[23] = cells; assay type: functional, cell-based; details: HEK-CNG
[24] = target: COUP transcription factor 2 (Homo sapiens, UniProt P24468); assay: Luminescence-based cell-based high throughput dose response assay to identify inhibitors of COUP-TFII (NR2F2).; assay type: functional;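 further: HEK293 cells transiently cotransfected with COUP-TFII expression vector and reporter; luciferase reporter luminescence driven by COUP-TFII from the pX2-168 reporter plasmid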
[25] = rise of 2N DNA cells, HeLa – IC50, dose response (AID 1117349); assay type: functional, cell-based
[26] = CellTiter-Glo luminescence survival assay, SW480 colon tumor line, concentration-response curve, half-maximal inhibitory concentration (AID 1117338); assay type: functional
[27] = cytotoxicity toward HCT116 cells – cell-based, CellTiter-Glo luminescence, IC50, dose response (AID 1117332); assay type: functional; details: HCT-116
[28] = SNU-C1 cell viability reduction, dose response, CellTiter-Glo luminescence (AID 1117323); assay type: functional, cell-based
[29] = cytotoxicity toward Colo320 cells – cell-based, CellTiter-Glo luminescence, IC50, dose response (AID 1117334); assay type: functional; details: COLO 320
[30] = rise of 4N DNA cells, HeLa – IC50, dose response (AID 1117351); assay type: functional, cell-based
[31] = cytotoxicity toward HT-29 cells – cell-based, CellTiter-Glo luminescence, IC50, dose response (AID 1117330); assay type: functional
[32] = Reduced DLD-1 viability, concentration-response, CellTiter-Glo luminescence (AID 1117352); assay type: functional

Protein Wnt-3a, sequence (P27467 whole entry): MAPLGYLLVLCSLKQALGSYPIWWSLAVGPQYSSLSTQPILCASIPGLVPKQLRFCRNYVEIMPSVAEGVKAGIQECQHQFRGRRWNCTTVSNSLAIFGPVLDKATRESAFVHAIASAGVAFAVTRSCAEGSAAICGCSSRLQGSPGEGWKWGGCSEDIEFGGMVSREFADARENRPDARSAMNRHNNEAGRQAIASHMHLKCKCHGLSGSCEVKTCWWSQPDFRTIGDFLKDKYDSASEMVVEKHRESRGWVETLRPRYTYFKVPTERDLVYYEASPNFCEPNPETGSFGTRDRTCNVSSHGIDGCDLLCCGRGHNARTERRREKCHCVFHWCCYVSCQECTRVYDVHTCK
Botulinum neurotoxin type F, sequence (P30996 1-436 limits assumed): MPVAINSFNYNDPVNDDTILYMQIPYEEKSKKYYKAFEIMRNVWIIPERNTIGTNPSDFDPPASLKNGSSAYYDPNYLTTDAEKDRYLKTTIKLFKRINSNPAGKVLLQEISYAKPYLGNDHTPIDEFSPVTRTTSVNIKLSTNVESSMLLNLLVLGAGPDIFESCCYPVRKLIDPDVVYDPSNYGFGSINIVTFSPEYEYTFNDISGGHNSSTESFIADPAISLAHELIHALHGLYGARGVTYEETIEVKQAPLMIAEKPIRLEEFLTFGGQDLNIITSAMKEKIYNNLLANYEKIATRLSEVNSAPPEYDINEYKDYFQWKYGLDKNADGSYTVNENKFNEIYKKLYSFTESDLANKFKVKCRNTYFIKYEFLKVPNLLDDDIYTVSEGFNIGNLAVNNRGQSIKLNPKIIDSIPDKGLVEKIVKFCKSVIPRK
COUP transcription factor 2, sequence (P24468 whole entry): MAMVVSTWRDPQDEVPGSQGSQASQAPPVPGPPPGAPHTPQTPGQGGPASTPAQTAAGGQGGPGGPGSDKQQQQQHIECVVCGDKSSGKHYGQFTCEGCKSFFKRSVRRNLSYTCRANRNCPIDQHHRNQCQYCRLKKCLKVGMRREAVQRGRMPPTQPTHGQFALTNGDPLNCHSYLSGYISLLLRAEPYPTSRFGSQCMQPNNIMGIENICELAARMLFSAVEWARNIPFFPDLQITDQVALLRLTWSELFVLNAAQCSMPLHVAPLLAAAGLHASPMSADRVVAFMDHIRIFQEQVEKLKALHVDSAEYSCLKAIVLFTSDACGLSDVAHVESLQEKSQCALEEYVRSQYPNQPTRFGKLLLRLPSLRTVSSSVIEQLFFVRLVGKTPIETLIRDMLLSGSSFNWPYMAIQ
Galanin receptor type 3, sequence (O60755 whole entry): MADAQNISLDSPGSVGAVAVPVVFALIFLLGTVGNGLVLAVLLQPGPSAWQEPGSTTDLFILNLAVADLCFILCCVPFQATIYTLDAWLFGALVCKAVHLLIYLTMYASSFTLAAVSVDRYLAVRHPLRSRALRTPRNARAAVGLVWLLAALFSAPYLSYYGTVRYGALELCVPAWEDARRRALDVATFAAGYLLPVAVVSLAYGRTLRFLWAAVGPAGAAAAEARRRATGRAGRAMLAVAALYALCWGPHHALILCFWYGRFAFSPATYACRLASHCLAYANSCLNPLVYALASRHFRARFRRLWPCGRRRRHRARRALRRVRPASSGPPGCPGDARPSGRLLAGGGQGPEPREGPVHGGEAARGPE
Paired box protein Pax-8, sequence (Q06710 whole entry): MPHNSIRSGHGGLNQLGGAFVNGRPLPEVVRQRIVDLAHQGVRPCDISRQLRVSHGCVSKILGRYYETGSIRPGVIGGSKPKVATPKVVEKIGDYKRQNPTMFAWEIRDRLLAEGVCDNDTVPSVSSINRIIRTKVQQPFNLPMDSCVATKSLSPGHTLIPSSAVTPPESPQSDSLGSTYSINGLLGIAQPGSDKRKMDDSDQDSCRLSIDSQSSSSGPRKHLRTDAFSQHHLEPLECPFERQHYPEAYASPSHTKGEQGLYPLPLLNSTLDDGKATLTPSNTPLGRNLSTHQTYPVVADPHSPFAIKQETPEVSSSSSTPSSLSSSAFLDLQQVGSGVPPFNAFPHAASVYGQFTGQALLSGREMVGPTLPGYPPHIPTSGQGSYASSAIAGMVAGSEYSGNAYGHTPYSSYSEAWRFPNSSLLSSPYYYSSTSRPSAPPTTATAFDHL

CO[C@H]1CN(C)C(=O)c2cc(NC(=O)Nc3ccc(Cl)c(Cl)c3)ccc2OC[C@H](C)NC[C@H]1C
AC50 [1]: 23.2 µM (active) | AC50 [2]: 18.5 µM (active) | AC50 [3]: 18.1 µM (active) | AC50 [4]: 26.6 µM (active) | AC50 [5]: > 70 µM (inactive) | AC50 [6]: 10.4 µM (active) | AC50 [7]: 12.1 µM (active)

C[C@H]1CCCCO[C@H](CN(C)C(=O)C2CCCCC2)[C@@H](C)CN([C@@H](C)CO)C(=O)c2cc(NC(=O)Nc3ccc(F)cc3)ccc2O1
AC50 [8]: 8.1 µM (active) | AC50 [9]: 57.6 µM (active)

COc1ccc(C(=O)NCCN2CCCC2)cc1OC1CCN(C(C)C)CC1
IC50 [10]: 1.84 µM (active)

N#C[C@@H]1[C@H](c2ccc(C#Cc3ccccc3F)cc2)[C@@H](CO)N1C(=O)C1CC1
AC50 [11]: 24.9 µM (active) | AC50 [12]: 5.15 µM (active) | AC50 [13]: 5.44 µM (active) | AC50 [14]: 33.5 µM (active)

C[C@H](CO)N1C[C@H](C)[C@H](CN(C)C(=O)Nc2cccc3ccccc23)OCCCC[C@H](C)Oc2ccc(NC(=O)C3CCCCC3)cc2C1=O
AC50 [11]: 43.9 µM (active) | AC50 [15]: 0.747 µM (active)

CN(C)c1cc(NC(=O)c2cccc(C#N)c2)ncn1
IC50 [16]: > 21.8 µM (inactive)

COc1ccc(-c2oc3c(OC)c(OC)c(OC)c(O)c3c(=O)c2OC)cc1OC
IC50 [17]: > 79 µM (inactive) | EC50 [18]: > 20 µM (inactive)

Cc1nc2ccccc2n1Cc1ccc(Cl)cc1 [CHLORMIDAZOLE]
AC50 [19]: 1.46 µM (active) | AC50 [20]: 2.79 µM (active) | AC50 [21]: 28.2 µM (active) | IC50 [22]: 0.203 µM (active) | EC50 [23]: > 29.9 µM (inactive) | IC50 [24]: 10.6 µM (inactive) | IC50 [25]: > 10 µM (inactive) | IC50 [26]: 5.33 µM (inactive) | IC50 [27]: 1.22 µM (active) | IC50 [28]: > 20 µM (inactive) | IC50 [29]: 15.2 µM (inactive) | IC50 [30]: > 10 µM (inactive) | IC50 [31]: > 20 µM (inactive) | IC50 [32]: > 20 µM (inactive)
